Experimental data reported in paper PMC12250302, “Synthesis, Antimicrobial Activities, and Model of Action of Novel Tetralone Derivatives Containing Aminoguanidinium Moiety” (International Journal of Molecular Sciences, 2025).
Values after ≈ are worked out from the molar mass of the structure shown.

Legend:
[1] = tested on: E. faecium ATCC 35667; experiment: MIC and MBC testing, broth microdilution; format: cell-based, Enterococcus faecium; conditions: Enterococcus faecium, ATCC35667, E. faecium ATCC 35667; for MIC: 18 h, read-out: MIC; for MBC: read-out: MBC
Procedure, shortened: (§1)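 Visible growth was scored after 18 h at 37 °C, and the MIC was taken as the lowest compound concentration showing none. Bacteria were grown to logarithmic phase in MH broth and diluted to 1 × 10^6 CFU/mL before combining with twofold compound dilutions.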

[2] = tested on: S. aureus ATCC 29213; experiment: MIC and MBC testing, broth microdilution; format: cell-based, Staphylococcus aureus; conditions: Staphylococcus aureus, ATCC29213, S. aureus ATCC 29213; for MIC: 18 h, read-out: MIC; for MBC: read-out: MBC
Procedure, shortened: as §1

[3] = tested on: K. pneumoniae ATCC 700603; experiment: MIC and MBC testing, broth microdilution; format: cell-based, Klebsiella pneumoniae; conditions: Klebsiella pneumoniae; for MIC: ATCC700603, 18 h, read-out: MIC; for MBC: ATCC700603, read-out: MBC
Procedure, shortened: as §1

[4] = tested on: clinical S. aureus isolate LMY46; experiment: MIC and MBC testing, broth microdilution; format: cell-based, Staphylococcus aureus; conditions: Staphylococcus aureus, LMY46; for MIC: 18 h, read-out: MIC; for MBC: read-out: MBC
Procedure, shortened: (§2)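 Log-phase cultures, adjusted to 1 × 10^6 CFU/mL in MH broth, are exposed to twofold serial compound dilutions and held at 37 °C for 18 h. Triplicate per concentration; both inhibitory and bactericidal endpoints are taken.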

[5] = tested on: clinical S. aureus isolate LMY48; experiment: MIC and MBC testing, broth microdilution; format: cell-based, Staphylococcus aureus; conditions: Staphylococcus aureus, LMY48; for MIC: 18 h, read-out: MIC; for MBC: read-out: MBC
Procedure, shortened: as §2

[6] = tested on: clinical S. aureus isolate LMY47; experiment: MIC and MBC testing, broth microdilution; format: cell-based, Staphylococcus aureus; conditions: Staphylococcus aureus, LMY47; for MIC: 18 h, read-out: MIC; for MBC: read-out: MBC
Procedure, shortened: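 MIC and MBC determined by broth microdilution with twofold compound dilutions (from DMSO stock) in MH broth. Log-phase inoculum at 1 × 10^6 CFU/mL; 18 h incubation at 37 °C.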

[7] = tested on: MRSA-1; experiment: MIC and MBC testing, broth microdilution; format: cell-based, Staphylococcus aureus; conditions: Staphylococcus aureus, MRSA-1; for MIC: 18 h, read-out: MIC; for MBC: read-out: MBC
Procedure, shortened: as §2

[8] = tested on: MRSA-2; experiment: MIC and MBC testing, broth microdilution; format: cell-based, Staphylococcus aureus; conditions: Staphylococcus aureus, MRSA-2; for MIC: 18 h, read-out: MIC; for MBC: read-out: MBC
Procedure, shortened: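 Compounds in DMSO were serially two-fold diluted in MH broth and mixed with log-phase bacteria diluted to 1 × 10^6 CFU/mL in MH broth, then incubated 18 h at 37 °C. MBC values were also determined. Each concentration was tested in triplicate.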

[9] = tested on: clinical S. aureus isolate LMY45; experiment: MIC and MBC testing, broth microdilution; format: cell-based, Staphylococcus aureus; conditions: Staphylococcus aureus, LMY45; for MIC: 18 h, read-out: MIC; for MBC: read-out: MBC
Procedure, shortened: as §2

[10] = tested on: P. aeruginosa ATCC 27853; experiment: MIC and MBC testing, broth microdilution; format: cell-based, Pseudomonas aeruginosa; conditions: Pseudomonas aeruginosa; for MIC: ATCC27853, 18 h, read-out: MIC; for MBC: ATCC27853, read-out: MBC
Procedure, shortened: as §1

[11] = tested on: S. aureus, including MRSA; experiment: MIC testing, summary over S. aureus strains; format: cell-based; conditions: Staphylococcus aureus
Protocol: (§3) The minimum inhibitory concentration (MIC) of all synthesized compounds was tested by the broth microdilution method. In brief, compounds dissolved in DMSO were diluted twice continuously in a 96-well plate with MH broth. The ESKAPE pathogens (E. coli ATCC 25922, S. aureus ATCC 29213, K. pneumoniae ATCC 700603, A. baumannii ATCC 19606, P. aeruginosa ATCC 27853, and E. faecium ATCC 35667), clinical S. aureus isolates (LMY45, LMY46, LMY47, and LMY48) and methicillin-resistant Staphylococcus aureus (MRSA-1 and MRSA-2) were cultured in MH broth to logarithmic growth phase and then diluted to 1 × 10^6 CFU/mL in MH broth. Subsequently, the diluted bacterial solution was mixed with the diluted compound solution in a 96-well plate and incubated at 37 °C for a duration of 18 h. The MIC of the compounds was recorded as the lowest concentration at which no visible growth was observed. […] Each concentration was replicated thrice.

[12] = tested on: E. coli ATCC 25922; experiment: MIC and MBC testing, broth microdilution; format: cell-based, Escherichia coli; conditions: Escherichia coli; for MIC: ATCC25922, 18 h, read-out: MIC; for MBC: ATCC25922, read-out: MBC
Procedure, shortened: as §1

[13] = tested on: MRSA; experiment: MIC testing, summary over MRSA strains; format: cell-based; conditions: Staphylococcus aureus; against MRSA
Protocol: as §3

[14] = tested on: A. baumannii ATCC 19606; experiment: MIC and MBC testing, broth microdilution; format: cell-based, Acinetobacter baumannii; conditions: Acinetobacter baumannii; for MIC: ATCC19606, 18 h, read-out: MIC; for MBC: ATCC19606, read-out: MBC
Procedure, shortened: as §1

Compound | MIC [1] | MBC [1] | MIC [2] | MBC [2] | MIC [3] | MBC [3] | MIC [4] | MBC [4] | MIC [5] | MBC [5] | MIC [6] | MBC [6] | MIC [7] | MBC [7] | MIC [8] | MBC [8] | MIC [9] | MBC [9] | MIC [10] | MBC [10] | further results
[H]/N=C(\N)NN=C1CCCc2cc(OCc3ccc(F)c(Cl)c3)ccc21 [Compound 1U, (E)-2-(6-((3-chloro-4-fluorobenzyl)oxy)-3,4-dihydronaphthalen-1(2H)-ylidene)hydrazine-1-carboximidamide] | 2 µg/mL (≈ 5.54 µM) | 16 µg/mL (≈ 44.3 µM) | 2 µg/mL (≈ 5.54 µM) | 4 µg/mL (≈ 11.1 µM) | 8 µg/mL (≈ 22.2 µM) | 32 µg/mL (≈ 88.7 µM) | 1 µg/mL (≈ 2.77 µM) | 4 µg/mL (≈ 11.1 µM) | 4 µg/mL (≈ 11.1 µM) | 8 µg/mL (≈ 22.2 µM) | 2 µg/mL (≈ 5.54 µM) | 4 µg/mL (≈ 11.1 µM) | 2 µg/mL (≈ 5.54 µM) | 32 µg/mL (≈ 88.7 µM) | 1 µg/mL (≈ 2.77 µM) | 4 µg/mL (≈ 11.1 µM) | 2 µg/mL (≈ 5.54 µM) | 2 µg/mL (≈ 5.54 µM) | 16 µg/mL (≈ 44.3 µM) | > 32 µg/mL | MIC [11]: 0.5 to 4 µg/mL (≈ 1.39 to 11.1 µM); MIC [12]: 4 µg/mL (≈ 11.1 µM); MBC [12]: 16 µg/mL (≈ 44.3 µM); MIC [13]: 1 to 2 µg/mL (≈ 2.77 to 5.54 µM); MIC [14]: 4 µg/mL (≈ 11.1 µM); MBC [14]: 16 µg/mL (≈ 44.3 µM)
[H]/N=C(\N)NN=C1CCCc2cc(OCCCC)ccc21 [Compound 2A, (E)-2-(6-butoxy-3,4-dihydronaphthalen-1(2H)-ylidene)hydrazine-1-carboximidamide] | 8 µg/mL (≈ 29.2 µM) | 32 µg/mL (≈ 117 µM) | 4 µg/mL (≈ 14.6 µM) | > 32 µg/mL | 16 µg/mL (≈ 58.3 µM) | > 32 µg/mL | 2 µg/mL (≈ 7.29 µM) | 4 µg/mL (≈ 14.6 µM) | 1 µg/mL (≈ 3.64 µM) | 2 µg/mL (≈ 7.29 µM) | 2 µg/mL (≈ 7.29 µM) | 2 µg/mL (≈ 7.29 µM) | 2 µg/mL (≈ 7.29 µM) | 2 µg/mL (≈ 7.29 µM) | 1 µg/mL (≈ 3.64 µM) | 2 µg/mL (≈ 7.29 µM) | 2 µg/mL (≈ 7.29 µM) | 4 µg/mL (≈ 14.6 µM) | 32 µg/mL (≈ 117 µM) | 32 µg/mL (≈ 117 µM) | MIC [11]: 0.5 to 4 µg/mL (≈ 1.82 to 14.6 µM); MIC [12]: 16 µg/mL (≈ 58.3 µM); MBC [12]: > 32 µg/mL; MIC [13]: 1 to 2 µg/mL (≈ 3.64 to 7.29 µM); MIC [14]: 8 µg/mL (≈ 29.2 µM); MBC [14]: 16 µg/mL (≈ 58.3 µM)
[H]/N=C(\N)NN=C1CCCc2cc(OCC=C(C)C)ccc21 [Compound 2I, (E)-2-(6-((3-methylbut-2-en-1-yl)oxy)-3,4-dihydronaphthalen-1(2H)-ylidene)hydrazine-1-carboximidamide] | 8 µg/mL (≈ 27.9 µM) | 32 µg/mL (≈ 112 µM) | 4 µg/mL (≈ 14 µM) | 32 µg/mL (≈ 112 µM) | 32 µg/mL (≈ 112 µM) | > 32 µg/mL | 2 µg/mL (≈ 6.98 µM) | 2 µg/mL (≈ 6.98 µM) | 1 µg/mL (≈ 3.49 µM) | 2 µg/mL (≈ 6.98 µM) | 2 µg/mL (≈ 6.98 µM) | 8 µg/mL (≈ 27.9 µM) | 2 µg/mL (≈ 6.98 µM) | 16 µg/mL (≈ 55.9 µM) | 1 µg/mL (≈ 3.49 µM) | 2 µg/mL (≈ 6.98 µM) | 2 µg/mL (≈ 6.98 µM) | 4 µg/mL (≈ 14 µM) | 32 µg/mL (≈ 112 µM) | 32 µg/mL (≈ 112 µM) | MIC [11]: 0.5 to 4 µg/mL (≈ 1.75 to 14 µM); MIC [12]: 16 µg/mL (≈ 55.9 µM); MBC [12]: 32 µg/mL (≈ 112 µM); MIC [13]: 1 to 2 µg/mL (≈ 3.49 to 6.98 µM); MIC [14]: 16 µg/mL (≈ 55.9 µM); MBC [14]: 32 µg/mL (≈ 112 µM)
